Measurements: BindingDB's records for patent US12264155 (Repare Therapeutics, 2025)

The molecules below were run against Serine/threonine-protein kinase ATR (Homo sapiens, UniProt Q13535) (assay: ATR/ATRIP Enzymatic Assay).
Text: Detection of ATR kinase activity utilized the AlphaScreen system to measure the phosphorylation of the substrate protein p53.

Serine/threonine-protein kinase ATR, sequence (Q13535 whole entry): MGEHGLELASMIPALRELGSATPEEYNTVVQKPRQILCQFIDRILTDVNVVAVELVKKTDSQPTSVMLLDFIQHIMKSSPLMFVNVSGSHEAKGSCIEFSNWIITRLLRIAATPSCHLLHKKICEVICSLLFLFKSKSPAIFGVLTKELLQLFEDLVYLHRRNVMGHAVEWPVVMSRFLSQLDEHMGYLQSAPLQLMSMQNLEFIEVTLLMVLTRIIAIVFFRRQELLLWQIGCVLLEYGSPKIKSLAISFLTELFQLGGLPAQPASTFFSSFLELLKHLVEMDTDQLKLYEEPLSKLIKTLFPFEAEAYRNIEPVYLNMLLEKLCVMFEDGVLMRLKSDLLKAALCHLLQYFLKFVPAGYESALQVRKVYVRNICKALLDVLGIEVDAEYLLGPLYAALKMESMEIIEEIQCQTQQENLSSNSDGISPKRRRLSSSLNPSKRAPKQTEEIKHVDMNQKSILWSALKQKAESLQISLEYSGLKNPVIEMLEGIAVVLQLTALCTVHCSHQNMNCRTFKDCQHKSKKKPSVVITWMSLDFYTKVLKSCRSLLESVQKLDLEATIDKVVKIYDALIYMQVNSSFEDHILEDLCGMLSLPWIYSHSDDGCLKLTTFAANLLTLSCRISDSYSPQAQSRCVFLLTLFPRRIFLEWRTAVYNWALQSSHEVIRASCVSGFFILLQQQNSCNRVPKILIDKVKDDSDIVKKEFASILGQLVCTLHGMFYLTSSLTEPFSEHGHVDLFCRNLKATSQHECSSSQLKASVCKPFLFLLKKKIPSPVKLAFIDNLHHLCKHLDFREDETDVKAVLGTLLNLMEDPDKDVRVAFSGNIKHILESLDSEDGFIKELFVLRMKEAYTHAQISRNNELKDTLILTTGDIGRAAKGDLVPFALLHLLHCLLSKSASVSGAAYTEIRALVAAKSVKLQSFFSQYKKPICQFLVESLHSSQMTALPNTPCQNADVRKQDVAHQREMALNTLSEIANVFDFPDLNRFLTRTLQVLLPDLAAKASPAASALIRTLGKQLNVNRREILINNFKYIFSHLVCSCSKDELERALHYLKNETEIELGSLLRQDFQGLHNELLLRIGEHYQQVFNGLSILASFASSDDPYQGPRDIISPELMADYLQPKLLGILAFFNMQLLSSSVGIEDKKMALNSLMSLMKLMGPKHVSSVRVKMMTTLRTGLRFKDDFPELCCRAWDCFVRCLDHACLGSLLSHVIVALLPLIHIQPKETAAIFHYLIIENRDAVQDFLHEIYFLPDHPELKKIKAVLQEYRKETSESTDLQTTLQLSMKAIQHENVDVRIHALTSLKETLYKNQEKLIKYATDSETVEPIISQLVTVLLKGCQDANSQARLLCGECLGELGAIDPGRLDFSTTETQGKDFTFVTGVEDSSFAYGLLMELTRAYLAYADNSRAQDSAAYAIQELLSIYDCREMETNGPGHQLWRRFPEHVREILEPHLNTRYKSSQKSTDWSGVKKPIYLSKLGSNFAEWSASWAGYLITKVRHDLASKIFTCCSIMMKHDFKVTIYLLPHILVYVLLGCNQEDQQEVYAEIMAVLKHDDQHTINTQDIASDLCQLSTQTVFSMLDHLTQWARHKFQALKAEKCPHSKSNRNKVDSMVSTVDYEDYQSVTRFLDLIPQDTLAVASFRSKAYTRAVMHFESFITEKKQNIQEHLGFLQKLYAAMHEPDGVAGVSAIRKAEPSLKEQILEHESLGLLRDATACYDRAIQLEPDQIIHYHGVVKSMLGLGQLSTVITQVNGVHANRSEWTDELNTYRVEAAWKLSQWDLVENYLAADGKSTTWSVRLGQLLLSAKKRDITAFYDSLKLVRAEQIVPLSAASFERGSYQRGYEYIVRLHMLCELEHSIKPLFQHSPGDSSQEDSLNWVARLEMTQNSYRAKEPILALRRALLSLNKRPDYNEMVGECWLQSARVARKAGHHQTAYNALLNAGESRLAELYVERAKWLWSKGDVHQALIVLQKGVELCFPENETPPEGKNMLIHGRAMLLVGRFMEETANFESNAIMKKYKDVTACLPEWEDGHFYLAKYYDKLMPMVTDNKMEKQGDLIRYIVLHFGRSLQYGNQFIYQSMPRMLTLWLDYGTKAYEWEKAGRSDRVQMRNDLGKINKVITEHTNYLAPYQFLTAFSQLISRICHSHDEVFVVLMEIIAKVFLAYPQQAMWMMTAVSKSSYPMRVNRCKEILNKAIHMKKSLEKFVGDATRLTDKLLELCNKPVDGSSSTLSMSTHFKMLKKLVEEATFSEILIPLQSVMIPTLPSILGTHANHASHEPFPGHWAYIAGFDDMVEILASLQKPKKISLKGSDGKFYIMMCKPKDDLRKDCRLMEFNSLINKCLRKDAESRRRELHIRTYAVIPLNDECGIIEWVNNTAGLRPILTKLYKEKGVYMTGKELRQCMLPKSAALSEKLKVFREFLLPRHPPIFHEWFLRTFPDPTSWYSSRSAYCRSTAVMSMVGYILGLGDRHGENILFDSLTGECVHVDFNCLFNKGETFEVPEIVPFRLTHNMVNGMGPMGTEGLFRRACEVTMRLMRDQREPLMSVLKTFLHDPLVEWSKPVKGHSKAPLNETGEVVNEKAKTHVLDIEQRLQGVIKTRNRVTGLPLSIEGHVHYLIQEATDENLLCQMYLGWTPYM

IC50 [nM] | SMILES
13 | C[C@@H]1COCCN1c1cc(OCC(F)(F)F)c2cnn(-c3cc[nH]n3)c2n1 [US12264155, Compound 55]
860 | C[C@@H]1COCCN1c1cc(N2CCOC2=O)c2ccn(-c3cc[nH]n3)c2n1 [US12264155, Compound 26]
< 5 | C[C@@H]1COCCN1c1cc(C(C)(C)C#N)c2c(Br)nn(-c3cc[nH]n3)c2n1 [US12264155, Compound 70]
6 | C[C@@H]1COCCN1c1cc(C2(O)CCC3(CCC3)CC2)c2cnn(-c3cc[nH]n3)c2n1 [US12264155, Compound 58]
